Assay results from patent EP1296974B1, “2-CYANOPYRROLIDINE DERIVATIVES AND THEIR USE AS MEDICAMENTS” (NOVARTIS AG, priority 2000, dated 2001).
Counter-ions that a name gives are not always drawn.

Columns and labels:
[1] = molecular target: T1, DPP-IV (Homo sapiens, UniProt P27487); test: Caco-2 DPP-IV Assay (inhibition of DPP-IV activity from human colonic carcinoma cell extracts); format: biochemical; settings: Caco-2 cell extract, substrate H-Alanine-Proline-pNA, 8-point dose-response curves
T1 construct: The assay is conducted by adding 20 µg solubilized Caco-2 protein; host or cells: Caco-2 (differentiated), NP-40 solubilized cell extract
Procedure: The human colonic carcinoma cell line Caco-2 was obtained from the American Type Culture Collection (ATCC HTB 37). Differentiation of the cells to induce DPP-IV expression was accomplished as described by Reisher, et al. in an article entitled "Increased expression of intestinal cell line Caco-2" in Proc. Natl. Acad. Sci., Vol. 90, pgs. […] Cell extract is prepared from cells solubilized in 10mM Tris HCI, 0.15 M NaCl, 0.04 t.i.u.aprotinin, 0.5% nonidet-P40, pH 8.0, which is centrifuged at 35,000 g for 30 min. at 4 °C. to remove cell debris. The assay is conducted by adding 20 µg solubilized Caco-2 protein, diluted to a final volume of 125 µl in assay buffer (25 mM Tris HCI pH 7.4, 140mM NaCl, 10 mM KCI, 1% bovine serum albumin) to microtiter plate wells. After a 60 min. incubation at room temperature, the reaction is initiated by adding 25 µl of 1 mM substrate (H-Alanine-Proline-pNA; pNA is p-nitroaniline). […] A standard curve of free p-nitroaniline is generated using 0-500 µM solutions of free pNA in assay buffer. The curve generated is linear and is used for interpolation of substrate consumption (catalytic activity in nmoles substrate cleaved /min).
The potency of the test compounds as DPP-IV inhibitors, expressed as IC50, is calculated from 8-point, dose-response curves using a 4-parameter logistic function.

[2] = molecular target: T2, rat plasma DPP-IV (Rattus norvegicus, UniProt P14740); test: DPP-IV activity in rat plasma (modified Kubota assay); format: biochemical; settings: substrate H-Glycine-Proline-AMC, 8-point dose-response curves
T2 construct: from tissue; host or cells: rat plasma
Procedure: (§1) Briefly, 5 µl of plasma are added to 96-well flat-bottom micortiter plates (Falcon), followed by the addition of 5 µl of 80 mM MgCl2 in incubation buffer (25 mMHEPES, 140 mM NaCl, 1% RIA-grade BSA, pH 7.8). After a 60 min. incubation at room temperature, the reaction is initiated by the addition of 10 µl of incubation buffer containing 0.1 mM substrate (H-Glycine-Proline-AMC; AMC is 7-amino-4-methylcoumarin). The plates are covered with aluminum foil (or kept in the dark) and incubated at room temperature for 20 min. […] A fluorescence-concentration curve of free AMC is generated using 0-50 µM solutions of AMC in assay buffer. The curve generated is linear and is used for interpolation of substrate consumption (catalytic activity in nmoles substrate cleaved/min). As with the previous assay, the potency of the test compounds as DPP-IV inhibitors, expressed as IC50, is calculated from 8-point, dose-response curves using a 4 parameter logistic function.

[3] = molecular target: T3, human plasma DPP-IV (Homo sapiens, UniProt P27487); test: DPP-IV activity in human plasma (modified Kubota assay); format: biochemical; settings: substrate H-Glycine-Proline-AMC, 8-point dose-response curves
T3 construct: from tissue; host or cells: human plasma
Procedure: as §1

[4] = molecular target: T4, plasma DPP-IV (Rattus norvegicus, UniProt P14740); test: Plasma DPP-IV activity after oral dosing in insulin resistant rats (oral glucose challenge study); format: in vivo, Male Sprague-Dawley rats; settings: 10 µmol/kg orally, ten minutes prior to glucose (1 g/kg p.o.), n=7-8, read-out: inhibition of plasma DPP-IV activity during the study
T4 construct: from tissue; host or cells: plasma of male Sprague-Dawley rats dosed orally (in vivo / ex vivo read-out)
From the text: (§2) More specifically, for example, the compounds of formula 1, and their corresponding pharmaceutically acceptable acid addition salts, improve early insulin response to an oral glucose challenge and, therefore, are useful in treating non-insulin-dependent diabetes mellitus. The ability of the compounds of formula I, and their corresponding pharmaceutically acceptable acid addition salts, to improve early insulin response to an oral glucose challenge may be measured in insulin resistant rats according to the following method:
(§3) Male Sprague-Dawley rats that had been fed a high fat diet (saturated fat = 57% calories) for 2-3 weeks were fasted for approximately 2 hours on the day of testing, divided into groups of 7-10, and dosed orally with 10 µmol/kg of test compound in carboxymethylcellulose. […] Blood samples, obtained at various time-points from chronic jugular vein catheters, were analyzed for plasma glucose concentration. Data are expressed as % decrease of the area under the plasma glucose curve compared to vehicle-treated control animals.

[5] = Oral glucose challenge in insulin resistant high fat fed rats: plasma glucose excursion; format: in vivo, Male Sprague-Dawley rats; settings: 10 µmol/kg orally; glucose 1 g/kg p.o.; % decrease of area under the plasma glucose curve compared to vehicle-treated control animals
From the text: as §2, §3

T1 sequence (P27487 whole entry): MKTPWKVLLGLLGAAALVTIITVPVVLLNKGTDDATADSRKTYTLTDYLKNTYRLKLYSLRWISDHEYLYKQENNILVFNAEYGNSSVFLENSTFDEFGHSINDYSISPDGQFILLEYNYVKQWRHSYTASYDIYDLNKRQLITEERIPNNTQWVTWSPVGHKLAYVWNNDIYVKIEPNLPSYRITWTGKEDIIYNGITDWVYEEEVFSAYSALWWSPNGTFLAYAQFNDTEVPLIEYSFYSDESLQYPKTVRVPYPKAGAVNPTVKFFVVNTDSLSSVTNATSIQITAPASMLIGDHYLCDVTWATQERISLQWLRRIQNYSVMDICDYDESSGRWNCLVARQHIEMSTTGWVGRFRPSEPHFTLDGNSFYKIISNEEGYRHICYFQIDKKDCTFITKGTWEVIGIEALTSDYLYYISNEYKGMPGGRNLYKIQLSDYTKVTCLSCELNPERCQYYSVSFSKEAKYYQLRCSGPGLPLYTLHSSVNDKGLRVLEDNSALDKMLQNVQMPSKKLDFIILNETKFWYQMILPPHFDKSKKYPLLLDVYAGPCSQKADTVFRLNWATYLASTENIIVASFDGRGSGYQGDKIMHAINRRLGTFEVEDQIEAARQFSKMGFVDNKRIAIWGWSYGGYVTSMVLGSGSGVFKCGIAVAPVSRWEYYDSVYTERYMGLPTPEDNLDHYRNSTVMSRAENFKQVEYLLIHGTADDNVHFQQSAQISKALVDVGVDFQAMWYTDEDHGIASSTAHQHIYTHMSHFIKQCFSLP
T3 sequence (P27487 39-766 limits assumed): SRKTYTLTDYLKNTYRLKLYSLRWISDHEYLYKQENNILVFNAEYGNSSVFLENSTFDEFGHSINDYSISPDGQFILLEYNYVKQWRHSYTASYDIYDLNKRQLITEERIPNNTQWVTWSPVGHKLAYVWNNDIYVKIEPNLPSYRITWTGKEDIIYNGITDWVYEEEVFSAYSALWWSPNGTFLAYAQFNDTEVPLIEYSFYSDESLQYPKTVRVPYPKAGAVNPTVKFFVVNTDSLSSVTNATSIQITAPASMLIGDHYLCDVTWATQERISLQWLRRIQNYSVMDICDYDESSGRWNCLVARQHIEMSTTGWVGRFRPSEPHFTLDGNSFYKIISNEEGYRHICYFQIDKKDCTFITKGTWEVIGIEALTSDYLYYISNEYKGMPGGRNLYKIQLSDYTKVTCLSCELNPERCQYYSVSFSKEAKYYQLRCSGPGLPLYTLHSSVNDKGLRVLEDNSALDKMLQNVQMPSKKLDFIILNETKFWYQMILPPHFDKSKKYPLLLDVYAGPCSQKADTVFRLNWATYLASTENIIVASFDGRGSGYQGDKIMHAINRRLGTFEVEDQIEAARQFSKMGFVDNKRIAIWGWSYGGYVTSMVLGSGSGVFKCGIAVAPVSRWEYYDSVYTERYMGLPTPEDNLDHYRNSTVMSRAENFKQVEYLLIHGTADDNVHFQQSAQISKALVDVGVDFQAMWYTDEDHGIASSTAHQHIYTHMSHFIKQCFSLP
T2 sequence (P14740 37-767 limits assumed): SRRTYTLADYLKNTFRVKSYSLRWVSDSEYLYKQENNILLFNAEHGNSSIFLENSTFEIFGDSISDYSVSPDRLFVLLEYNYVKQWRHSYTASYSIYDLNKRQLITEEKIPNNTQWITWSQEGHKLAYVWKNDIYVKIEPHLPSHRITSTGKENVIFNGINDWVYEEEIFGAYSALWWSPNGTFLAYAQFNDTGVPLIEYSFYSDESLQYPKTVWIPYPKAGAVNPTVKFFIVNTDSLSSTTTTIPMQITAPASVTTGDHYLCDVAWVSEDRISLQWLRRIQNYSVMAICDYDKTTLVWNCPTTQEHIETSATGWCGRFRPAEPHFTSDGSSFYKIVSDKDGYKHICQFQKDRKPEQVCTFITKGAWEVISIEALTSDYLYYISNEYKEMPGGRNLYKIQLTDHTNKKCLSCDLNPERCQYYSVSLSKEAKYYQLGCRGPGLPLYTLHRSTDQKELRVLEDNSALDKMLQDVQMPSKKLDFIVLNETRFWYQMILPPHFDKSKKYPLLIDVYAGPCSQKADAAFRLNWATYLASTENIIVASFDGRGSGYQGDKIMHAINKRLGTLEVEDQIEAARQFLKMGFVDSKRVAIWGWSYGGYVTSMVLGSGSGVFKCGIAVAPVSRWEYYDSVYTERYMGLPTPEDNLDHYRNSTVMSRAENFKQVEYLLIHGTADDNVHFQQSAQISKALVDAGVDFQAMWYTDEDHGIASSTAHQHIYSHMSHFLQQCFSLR
T4 sequence (P14740 37-767 limits assumed): as above

IC50 [1]	IC50 [2]	IC50 [3]	inhibition at 10 µmol/kg [4]	Compound	Decrease of plasma glucose excursion at 10 µmovkg (p=0.01) [5]
5 nM	5 nM	10 nM	80%	N#C[C@@H]1CCCN1C(=O)CNC1CCC(NC(=O)c2ccccc2)CC1 (stereo partly drawn) [Ex. 2N, 1-[[[4-(benzoylamino)cyclohexyl]amino]acetyl]-2-cyano-(S)-pyrrolidine]	39%
3 nM	2 nM	4 nM		N#C[C@@H]1CCCN1C(=O)CNC1CCC(Nc2ccnc(Cl)n2)CC1 (stereo partly drawn) [Ex. 2S, 1-[[[4-[(2-chloro-4-pyrimidinyl)amino]cyclohexyl]amino]acetyl]-2-cyano-(S)-pyrrolidine, dihydrochloride]	
39 nM	14 nM	27 nM		CC(C)(C)C(=O)NC1CCC(NCC(=O)N2CCC[C@H]2C#N)CC1 (stereo partly drawn) [Ex. 2U, 1-[[[4-[(2,2-dimethyl-1-oxopropyl)amino]cyclohexyl]amino]acetyl]-2-cyano-(S)-pyrrolidine, monohydrochloride]	
12 nM	37 nM	124 nM		N#C[C@@H]1CCCN1C(=O)CNC1CCC(Nc2nc3cc(Cl)ccc3s2)CC1 (stereo partly drawn) [Ex. 2Y, 1-[[[4-[(5-chloro-2-benzothiazolyl)amino]cyclohexyl]amino]acetyl]-2-cyano-(S)-pyrrolidine, dihydrochloride]	
124 nM	107 nM	204 nM		N#C[C@@H]1CCCN1C(=O)CNC1CCN(S(=O)(=O)c2ccc(Cl)cc2)CC1 [Ex. 3, 1-[[[1-[(4-Chlorophenyl)sulfonyl]-4-piperidinyl]amino]acetyl]-2-cyano-(S)-pyrrolidine, monohydrochloride]	

More lines, now with the values behind:

Compound	IC50 [1]	IC50 [2]	IC50 [3]	inhibition at 10 µmol/kg [4]	Decrease of plasma glucose excursion at 10 µmovkg (p=0.01) [5]
CC(C)(CNc1ccc(Cl)cn1)NCC(=O)N1CCC[C@H]1C#N [Ex. 1, 1-[[[2-[(5-Chloro-2-pyridinyl)amino]-1,1-dimethylethyl]amino]acetyl]-2-cyano-(S)-pyrrolidine, monohydrochloride]	2 nM	6 nM	30 nM		
N#C[C@@H]1CCCN1C(=O)CNC1CCC(Oc2ccc(C(F)(F)F)cc2)CC1 (stereo partly drawn) [Ex. 2EE, 1-[[[4-[4-(trifluoromethyl)phenoxy]cyclohexyl]amino]acetyl]-2-cyano-(S)-pyrrolidine, monohydrochloride]	23 nM	46 nM	150 nM		
N#C[C@@H]1CCCN1C(=O)CNC1CCC(NS(=O)(=O)c2ccccc2)CC1 (stereo partly drawn) [Ex. 2M, 1-[[[4-[(phenylsulfonyl)amino]cyclohexyl]amino]acetyl]-2-cyano-(S)-pyrrolidine, monohydrochloride]	34 nM	6 nM	10 nM		
N#Cc1ccc(NC2CCC(NCC(=O)N3CCC[C@H]3C#N)CC2)cc1 (stereo partly drawn) [Ex. 2W, 1-[[[4-[(4-cyanophenyl)amino]cyclohexyl]amino]acetyl]-2-cyano-(S)-pyrrolidine, dihydrochloride]	13 nM	7 nM	19 nM		
